Molecular target: APJ receptor (Homo sapiens (Human), UniProt P35414)
Experiment: [35S]GTPγS binding assay on membranes from CHO cells stably expressing human APJ receptor
Format: biochemical
Conditions: membranes of CHO cells stably expressing human APJ receptor, means of several independent experiments, read-out: Activity hAPJ SPA EC50 IP
How it was run: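 Membranes from CHO cells stably expressing human APJ were incubated with 0.2 nM [35S]GTPγS and ligands for 90 min at RT in 20 mM HEPES pH 7.5, 5 mM MgCl2, 200 mM NaCl, 3 μM GDP, 0.1% BSA with WGA PS beads. Nonspecific binding was set with 100 μM GTPγS. EC50 came from non-linear regression.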

APJ receptor, sequence (P35414 whole entry): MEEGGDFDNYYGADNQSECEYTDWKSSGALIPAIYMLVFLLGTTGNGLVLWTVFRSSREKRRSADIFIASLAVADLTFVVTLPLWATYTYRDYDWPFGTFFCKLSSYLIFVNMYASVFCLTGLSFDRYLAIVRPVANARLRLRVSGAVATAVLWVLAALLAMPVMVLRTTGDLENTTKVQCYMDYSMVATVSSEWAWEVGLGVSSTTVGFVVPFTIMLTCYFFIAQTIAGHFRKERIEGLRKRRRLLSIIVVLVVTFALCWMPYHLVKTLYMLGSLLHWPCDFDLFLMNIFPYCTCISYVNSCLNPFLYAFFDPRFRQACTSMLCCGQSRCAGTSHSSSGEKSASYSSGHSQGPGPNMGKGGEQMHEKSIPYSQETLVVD

Question: COc1cccc(OC)c1-n1c(NS(=O)(=O)[C@H](C)[C@H](O)c2cn3ccccc3n2)nnc1-c1ccc(C)o1 (racemic) [Example 285.0, (1R,2R)—N-(4-(2,6-Dimethoxyphenyl)-5-(5-methyl-2-furanyl)-4H-1,2,4-triazol-3-yl)-1-hydroxy-1-imidazo[1,2-a]pyridin-2-yl-2-propanesulfonamide and (1S,2S)—N-(4-(2,6-dimethoxyphenyl)-5-(5-methyl-2-furanyl)-4H-1,2,4-triazol-3-yl)-1-hydroxy-1-imidazo[1,2-a]pyridin-2-yl-2-propanesulfonamide] was tested. Which EC50 did it give?
Answer: 2.5 nM

Question: With COc1cccc(OC)c1-n1c(NS(=O)(=O)[C@@H](C)[C@@H](O)c2ccc(Cl)cc2S(C)(=O)=O)nnc1-c1ccc(C)o1 (single isomer, unassigned) [Example 153.0, (1R,2R)-1-(4-Chloro-2-(methylsulfonyl)phenyl)-N-(4-(2,6-dimethoxyphenyl)-5-(5-methyl-2-furanyl)-4H-1,2,4-triazol-3-yl)-1-hydroxy-2-propanesulfonamide or (1S,2S)-1-(4-chloro-2-(methylsulfonyl)phenyl)-N-(4-(2,6-dimethoxyphenyl)-5-(5-methyl-2-furanyl)-4H-1,2,4-triazol-3-yl)-1-hydroxy-2-propanesulfonamide] as the compound, how does the EC50 read?
Answer: 0.26 nM

Question: COc1cccc(OC)c1-n1c(NS(=O)(=O)CCc2ncc(Cl)cc2N2CCC2=O)nnc1-c1ccco1 [Example 27.0, 2-(5-chloro-3-(2-oxo-1-azetidinyl)-2-pyridinyl)-N-(4-(2,6-dimethoxyphenyl)-5-(2-furanyl)-4H-1,2,4-triazol-3-yl)ethanesulfonamide] was tested. Which EC50 did it give?
Answer: 0.46 nM

Question: Which EC50 does the source give for COc1cccc(OC)c1-n1c(NS(=O)(=O)[C@@H]2CC[C@@H](O)[C@H](O)C2)nnc1-c1ccc(C)o1 (single isomer, unassigned) [Example 407.0] here?
Answer: 180 nM

Question: With COc1ccc(-n2c(NS(=O)(=O)[C@@H](C)Cc3ncc(F)cn3)nnc2-c2ccco2)c(OC)c1 (mixture of isomers) [Example 315.0, (2R)—N-(4-(2,4-Dimethoxyphenyl)-5-(2-furanyl)-4H-1,2,4-triazol-3-yl)-1-(5-fluoro-2-pyrimidinyl)-2-propanesulfonamide and (2S)—N-(4-(2,4-dimethoxyphenyl)-5-(2-furanyl)-4H-1,2,4-triazol-3-yl)-1-(5-fluoro-2-pyrimidinyl)-2-propanesulfonamide] as the compound, how does the EC50 read?
Answer: 270 nM

Question: COc1cccc(OC)c1-n1c(NS(=O)(=O)CCc2ncc(Cl)cc2C2=CCN(C)CC2)nnc1-c1ccco1 [Example 214.0, 2-(5-Chloro-1′-methyl-1′,2′,3′,6′-tetrahydro-3,4′-bipyridin-2-yl)-N-(4-(2,6-dimethoxyphenyl)-5-(2-furanyl)-4H-1,2,4-triazol-3-yl)ethanesulfonamide] was tested. Which EC50 did it give?
Answer: 0.21 nM

Question: How did the EC50 turn out when COc1cccc(OC)c1-n1c(NS(=O)(=O)[C@@H](C)[C@@H](O)c2coc(C)n2)nnc1-c1ccc(C)o1 (racemic) [Example 300.0, (1R,2R)—N-(4-(2,6-Dimethoxyphenyl)-5-(5-methyl-2-furanyl)-4H-1,2,4-triazol-3-yl)-1-hydroxy-1-(2-methyl-1,3-oxazol-4-yl)-2-propanesulfonamide and (1S,2S)—N-(4-(2,6-dimethoxyphenyl)-5-(5-methyl-2-furanyl)-4H-1,2,4-triazol-3-yl)-1-hydroxy-1-(2-methyl-1,3-oxazol-4-yl)-2-propanesulfonamide] was run?
Answer: 12 nM

Question: COc1cccc(OC)c1-n1c(NS(=O)(=O)[C@H](C)Cc2cncnc2)nnc1-c1ccco1 (single isomer, unassigned) [Example 45.0, (2R)—N-(4-(2,6-dimethoxyphenyl)-5-(2-furanyl)-4H-1,2,4-triazol-3-yl)-1-(5-pyrimidinyl)-2-propanesulfonamide or (2S)—N-(4-(2,6-dimethoxyphenyl)-5-(2-furanyl)-4H-1,2,4-triazol-3-yl)-1-(5-pyrimidinyl)-2-propanesulfonamide] was tested. Which EC50 did it give?
Answer: 72 nM

Question: C[C@@H](Cc1ncc(F)cn1)S(=O)(=O)Nc1nnc(-c2ccco2)n1-c1ccccc1F (racemic) [Example 312.0, (2R)—N-(4-(2-Fluorophenyl)-5-(2-furanyl)-4H-1,2,4-triazol-3-yl)-1-(5-fluoro-2-pyrimidinyl)-2-propanesulfonamide and (2S)—N-(4-(2-fluorophenyl)-5-(2-furanyl)-4H-1,2,4-triazol-3-yl)-1-(5-fluoro-2-pyrimidinyl)-2-propanesulfonamide] was tested. Which EC50 did it give?
Answer: 210 nM

Question: For COc1cccc(OC)c1-n1c(NS(=O)(=O)[C@@H](C)[C@@](C)(O)c2ccc(C#N)cn2)nnc1-c1ccc(C)o1 (single isomer, unassigned) [Example 227.0], which EC50 is on record?
Answer: 0.35 nM

Question: COc1cccc(OC)c1-n1c(NS(=O)(=O)C[C@@](C)(O)c2ncc(C#N)cn2)nnc1-c1ccc(C)o1 (single isomer, unassigned) [Example 248.0, (2S)-2-(5-Cyano-2-pyrimidinyl)-N-(4-(2,6-dimethoxyphenyl)-5-(5-methyl-2-furanyl)-4H-1,2,4-triazol-3-yl)-2-hydroxy-1-propanesulfonamide or (2R)-2-(5-cyano-2-pyrimidinyl)-N-(4-(2,6-dimethoxyphenyl)-5-(5-methyl-2-furanyl)-4H-1,2,4-triazol-3-yl)-2-hydroxy-1-propanesulfonamide] was tested. Which EC50 did it give?
Answer: 1.6 nM

Question: How did the EC50 turn out when COc1cccc(OC)c1-n1c(NS(=O)(=O)[C@H]2C[C@@H](O)CN(c3ncc(F)cn3)C2)nnc1-c1ccc(C)o1 (racemic) [Example 332.0] was run?
Answer: 0.45 nM

Question: Which EC50 does the source give for COc1ncnc(OC)c1-n1c(NS(=O)(=O)[C@@H](C)[C@H](OC)c2ncc(C)cn2)nnc1-c1ccc(C)o1 [Example 3.0, (1R,2S)—N-(4-(4,6-dimethoxypyrimidin-5-yl)-5-(5-methylfuran-2-yl)-4H-1,2,4-triazol-3-yl)-1-methoxy-1-(5-methylpyrimidin-2-yl)propane-2-sulfonamide] here?
Answer: 0.31 nM

Question: With COc1cccc(OC)c1-n1c(NS(=O)(=O)[C@H]2C[C@@H](O)CN(C(=O)N(C)C)C2)nnc1-c1ccc(C)o1 (single isomer, unassigned) [Example 337.0, (3S,5R)-3-(N-(4-(2,6-Dimethoxyphenyl)-5-(5-methylfuran-2-yl)-4H-1,2,4-triazol-3-yl)sulfamoyl)-5-hydroxy-N,N-dimethylpiperidine-1-carboxamide or (3R,5S)-3-(N-(4-(2,6-dimethoxyphenyl)-5-(5-methylfuran-2-yl)-4H-1,2,4-triazol-3-yl)sulfamoyl)-5-hydroxy-N,N-dimethylpiperidine-1-carboxamide] as the compound, how does the EC50 read?
Answer: 1.3 nM

Question: With COc1cnc(N2C[C@H](O)C[C@H](S(=O)(=O)Nc3nnc(-c4ccc(C)o4)n3-c3c(OC)cccc3OC)C2)nc1 (racemic) [Example 335.0, (3S,5R)—N-(4-(2,6-Dimethoxyphenyl)-5-(5-methylfuran-2-yl)-4H-1,2,4-triazol-3-yl)-5-hydroxy-1-(5-methoxypyrimidin-2-yl)piperidine-3-sulfonamide and (3R,5S)—N-(4-(2,6-dimethoxyphenyl)-5-(5-methylfuran-2-yl)-4H-1,2,4-triazol-3-yl)-5-hydroxy-1-(5-methoxypyrimidin-2-yl)piperidine-3-sulfonamide] as the compound, how does the EC50 read?
Answer: 0.52 nM

Question: Which EC50 does the source give for “(1R,2R)-N-(4-(2,6-dimethoxyphenyl)-5-(5-methyl-2-furanyl)-4H-1,2,4-triazol-3-yl)-1-hydroxy-1-(5-methyl-2-pyrimidinyl)-2-propanesulfonamide or (1S,2S)-N-(4-(2,6-dimethoxyphenyl)-5-(5-methyl-2-furanyl)-4H-1,2,4-triazol-3-yl)-1-hydroxy-1-(5-methyl-2-pyrimidinyl)-2-propanesulfonamide [Example 244.0]” here?
Answer: 0.94 nM

Question: With COc1cccc(OC)c1-n1c(NS(=O)(=O)[C@H](C)Cc2ccc(C#N)cn2)nnc1-c1ccc(C)o1 (single isomer, unassigned) [Example 33.0, (2R)-1-(5-cyano-2-pyridinyl)-N-(4-(2,6-dimethoxyphenyl)-5-(5-methyl-2-furanyl)-4H-1,2,4-triazol-3-yl)-2-propanesulfonamide or (2S)-1-(5-cyano-2-pyridinyl)-N-(4-(2,6-dimethoxyphenyl)-5-(5-methyl-2-furanyl)-4H-1,2,4-triazol-3-yl)-2-propanesulfonamide] as the compound, how does the EC50 read?
Answer: 2.4 nM

Question: How did the EC50 turn out when COc1cccc(OC)c1-n1c(NS(=O)(=O)C[C@@](C)(F)c2ncc(F)cn2)nnc1-c1ccc(C)o1 (single isomer, unassigned) [Example 237.0, (2S)—N-(4-(2,6-Dimethoxyphenyl)-5-(5-methyl-2-furanyl)-4H-1,2,4-triazol-3-yl)-2-fluoro-2-(5-fluoro-2-pyrimidinyl)-1-propanesulfonamide or (2R)—N-(4-(2,6-dimethoxyphenyl)-5-(5-methyl-2-furanyl)-4H-1,2,4-triazol-3-yl)-2-fluoro-2-(5-fluoro-2-pyrimidinyl)-1-propanesulfonamide] was run?
Answer: 0.58 nM

Question: Which EC50 does the source give for COc1ccnc(N2C[C@H](O)C[C@H](S(=O)(=O)Nc3nnc(-c4ccc(C)o4)n3-c3c(OC)cccc3OC)C2)n1 (single isomer, unassigned) [Example 327.0, (3S,5R)—N-(4-(2,6-Dimethoxyphenyl)-5-(5-methyl-2-furanyl)-4H-1,2,4-triazol-3-yl)-5-hydroxy-1-(4-methoxy-2-pyrimidinyl)-3-piperidinesulfonamide or (3R,5S)—N-(4-(2,6-dimethoxyphenyl)-5-(5-methyl-2-furanyl)-4H-1,2,4-triazol-3-yl)-5-hydroxy-1-(4-methoxy-2-pyrimidinyl)-3-piperidinesulfonamide] here?
Answer: 0.25 nM

Question: CC[C@H](Cc1ncc(F)cn1)S(=O)(=O)Nc1nnc(-c2ccco2)n1-c1c(OC)cccc1OC (single isomer, unassigned) [Example 136.0, (R)—N-(4-(2,6-Dimethoxyphenyl)-5-(furan-2-yl)-4H-1,2,4-triazol-3-yl)-1-(5-fluoropyrimidin-2-yl)butane-2-sulfonamide or (S)—N-(4-(2,6-dimethoxyphenyl)-5-(furan-2-yl)-4H-1,2,4-triazol-3-yl)-1-(5-fluoropyrimidin-2-yl)butane-2-sulfonamide] was tested. Which EC50 did it give?
Answer: 19 nM

— patent US10736883B2, “Triazole furan compounds as agonists of the APJ receptor” (AMGEN INC., priority 2016, dated 2020)
